Test results taken from US20260365670A1, “EGFR INHIBITORS AND USES THEREOF” (DIZAL (JIANGSU) PHARMACEUTICAL CO., LTD., priority 2022, published 2026).
Where two headings read alike, the source gives them in different places.

Columns and labels:
[1] = tested on: PC-9; assay: Cell proliferation assay, PC-9 cells (CellTiter-Glo, 72 hours); assay type: cell-based; details: PC9 cells, CellTiter-Glo, read-out: PC9 GI50
Procedure, shortened: (§1)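 Seed Ba/F3 at 5000 cells/well and PC-9 at 500 cells/well (10% FBS RPMI1640); incubate overnight; add compound dilution series; read a G0 plate; incubate; read G3; GI50 from best-fit curve.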

[2] = molecular target: T1, EGFR Exon19Del/T790M (Homo sapiens, UniProt P00533, DEL746-750/T790M); assay: Inhibition of EGFR Exon19Del/T790M biochemical enzymatic activity (HTRF); details: EGFR Del19-T790M, 1 mM ATP, 1 h, room temperature, read-out: IC50 (nM) @Del19-T790M
T1 construct: purchased Carna Bio
Procedure, shortened: (§2)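 Using a high ATP level (1 mM), wild-type and mutant EGFR enzymes were incubated 1 h at room temperature with inhibitor and 1 μM biotinylated TK substrate. Phosphorylation was quantified as the 665/615 nm HTRF ratio. IC50s were derived by logistic fitting.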

[3] = molecular target: T2, EGFR Exon19Del (Homo sapiens, UniProt P00533, DEL746-750); assay: Inhibition of EGFR Exon19Del biochemical enzymatic activity (HTRF); details: EGFR Del19, 1 mM ATP, 1 h, room temperature, read-out: IC50 @Del19
T2 construct: purchased Carna Bio
Procedure, shortened: as §2

[4] = tested on: A-431; assay: Cell proliferation GI50, A-431 cells (Table 6); assay type: cell-based
[5] = molecular target: T3, EGFR L858R/T790M (Homo sapiens, UniProt P00533, L858R/T790M); assay: Inhibition of EGFR L858R/T790M biochemical enzymatic activity (HTRF); details: EGFR L858R-T790M, 1 mM ATP, 1 h, room temperature, read-out: IC50 (nM) @L858R-T790M
T3 construct: purchased Carna Bio
Procedure, shortened: as §2

[6] = molecular target: T4, EGFR L858R (Homo sapiens, UniProt P00533, L858R); assay: Inhibition of EGFR L858R biochemical enzymatic activity (HTRF); details: 1 mM ATP, 1 h, room temperature, read-out: IC50 (nM) @L858R
T4 construct: purchased Carna Bio
Procedure, shortened: as §2

[7] = molecular target: T5, EGFR (d746-750 C797S) (Homo sapiens, UniProt P00533, C797S/DEL746-750); assay: Inhibition of EGFR (d746-750 C797S) biochemical enzymatic activity (HTRF); details: EGFR Del19-C797S, 1 mM ATP, 1 h, room temperature, read-out: IC50 (nM) @Del19-C797S
T5 construct: purchased signalchem
Procedure, shortened: as §2

[8] = molecular target: T6, EGFR wild type (Homo sapiens, UniProt P00533); assay: Inhibition of EGFR wild type biochemical enzymatic activity (HTRF); details: EGFR WT, 1 mM ATP, 1 h, room temperature, read-out: IC50 (nM) @WT
T6 construct: purchased Carna Bio
Procedure, shortened: as §2

[9] = molecular target: T7, EGFR[T790M/C797S/d746-750] (Homo sapiens, UniProt P00533, C797S/DEL746-750/T790M); assay: Inhibition of EGFR[T790M/C797S/d746-750] biochemical enzymatic activity (HTRF); details: EGFR T790M-C797S-Del19, 1 mM ATP, 1 h, room temperature, read-out: IC50 (nM) @T790M - C797S - Del19
T7 construct: purchased Carna Bio
Procedure, shortened: as §2

[10] = molecular target: T8, EGFR (C797S L858R) (Homo sapiens, UniProt P00533, C797S/L858R); assay: Inhibition of EGFR (C797S L858R) biochemical enzymatic activity (HTRF); details: EGFR L858-C797S, 1 mM ATP, 1 h, room temperature, read-out: IC50 (nM) @L858-C797S
T8 construct: purchased signalchem
Procedure, shortened: as §2

[11] = tested on: Ba/F3 cells expressing EGFR mutations; assay: Cell proliferation assay, Ba/F3 cells expressing EGFR mutations (CellTiter-Glo, 72 hours); assay type: cell-based; details: CellTiter-Glo
Procedure, shortened: as §1

[12] = molecular target: T9, EGFR[T790M/C797S/L858R] (Homo sapiens, UniProt P00533, C797S/L858R/T790M); assay: Inhibition of EGFR[T790M/C797S/L858R] biochemical enzymatic activity (HTRF); details: EGFR T790M-C797S-L858R, 1 mM ATP, 1 h, room temperature, read-out: IC50 (nM) @T790M- C797S - L858R
T9 construct: purchased Carna Bio
Procedure, shortened: as §2

[13] = BaF3 cells, EGFR DEL19-C797S, read-out: DEL19-C797S/BaF3 GI50
[14] = BaF3 cells, EGFR DEL19-T790-C797S, read-out: DEL19-T790-C797S/BaF3 GI50
[15] = BaF3 cells, EGFR L858R, read-out: L858R/BaF3 GI50
[16] = BaF3 cells, EGFR L858R-C797S, read-out: L858R-C797S/BaF3 GI50
[17] = BaF3 cells, EGFR L858R-T790-C797S, read-out: L858R-T790-C797S/BaF3 GI50
[18] = BaF3 cells, EGFR L858R-T790M, read-out: L858R-T790M/BaF3 GI50
[19] = EGFR DEL19-T790M, read-out: DEL19-T790M GI50
[20] = Homo sapiens, A-431, A-431 cells
[21] = Mus musculus, BaF3, 72 h, BaF3 cells, EGFR DEL19-C797S, read-out: DEL19-C797S/BaF3 GI50
[22] = Mus musculus, BaF3, 72 h, BaF3 cells, EGFR DEL19-T790-C797S, read-out: DEL19-T790-C797S/BaF3 GI50
[23] = Mus musculus, BaF3, 72 h, BaF3 cells, EGFR L858R, read-out: L858R/BaF3 GI50
[24] = Mus musculus, BaF3, 72 h, BaF3 cells, EGFR L858R-C797S, read-out: L858R-C797S/BaF3 GI50
[25] = Mus musculus, BaF3, 72 h, BaF3 cells, EGFR L858R-T790-C797S, read-out: L858R-T790-C797S/BaF3 GI50
[26] = Mus musculus, BaF3, 72 h, BaF3 cells, EGFR L858R-T790M, read-out: L858R-T790M/BaF3 GI50
[27] = Mus musculus, BaF3, 72 h, EGFR DEL19-T790M, read-out: DEL19-T790M GI50

T3 sequence (P00533 25-1210 T790M/L858R): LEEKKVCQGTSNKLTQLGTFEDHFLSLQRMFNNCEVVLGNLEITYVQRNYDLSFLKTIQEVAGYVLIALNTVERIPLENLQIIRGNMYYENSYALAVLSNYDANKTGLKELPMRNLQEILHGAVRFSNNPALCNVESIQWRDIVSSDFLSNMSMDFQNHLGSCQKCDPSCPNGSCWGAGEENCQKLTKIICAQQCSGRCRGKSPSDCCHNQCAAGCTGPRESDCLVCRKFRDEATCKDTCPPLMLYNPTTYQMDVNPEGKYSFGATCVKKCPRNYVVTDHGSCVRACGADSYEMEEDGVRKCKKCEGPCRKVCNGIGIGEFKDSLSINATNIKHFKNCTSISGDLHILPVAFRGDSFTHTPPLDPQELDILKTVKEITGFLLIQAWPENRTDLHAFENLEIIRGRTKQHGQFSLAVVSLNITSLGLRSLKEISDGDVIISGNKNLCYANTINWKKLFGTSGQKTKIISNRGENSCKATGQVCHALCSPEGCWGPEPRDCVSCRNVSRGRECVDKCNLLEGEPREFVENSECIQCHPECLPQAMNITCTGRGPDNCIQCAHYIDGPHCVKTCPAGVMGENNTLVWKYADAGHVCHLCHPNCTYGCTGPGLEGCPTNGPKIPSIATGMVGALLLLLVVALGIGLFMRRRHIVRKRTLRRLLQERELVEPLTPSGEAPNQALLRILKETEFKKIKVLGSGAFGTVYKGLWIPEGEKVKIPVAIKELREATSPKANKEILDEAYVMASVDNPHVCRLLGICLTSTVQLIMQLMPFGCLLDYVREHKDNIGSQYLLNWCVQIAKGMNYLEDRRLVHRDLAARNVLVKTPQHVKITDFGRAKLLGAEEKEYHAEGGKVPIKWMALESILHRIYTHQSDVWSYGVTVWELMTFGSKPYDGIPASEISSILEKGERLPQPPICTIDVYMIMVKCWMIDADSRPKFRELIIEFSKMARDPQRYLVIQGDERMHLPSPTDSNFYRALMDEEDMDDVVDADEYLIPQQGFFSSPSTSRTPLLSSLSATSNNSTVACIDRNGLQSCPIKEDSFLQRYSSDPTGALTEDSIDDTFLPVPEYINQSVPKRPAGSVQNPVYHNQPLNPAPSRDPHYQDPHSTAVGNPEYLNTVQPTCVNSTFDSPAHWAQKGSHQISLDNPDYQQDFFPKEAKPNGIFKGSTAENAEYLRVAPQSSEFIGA
T1 sequence (P00533 with tags, fused parts or gaps DEL746-750/T790M limits assumed): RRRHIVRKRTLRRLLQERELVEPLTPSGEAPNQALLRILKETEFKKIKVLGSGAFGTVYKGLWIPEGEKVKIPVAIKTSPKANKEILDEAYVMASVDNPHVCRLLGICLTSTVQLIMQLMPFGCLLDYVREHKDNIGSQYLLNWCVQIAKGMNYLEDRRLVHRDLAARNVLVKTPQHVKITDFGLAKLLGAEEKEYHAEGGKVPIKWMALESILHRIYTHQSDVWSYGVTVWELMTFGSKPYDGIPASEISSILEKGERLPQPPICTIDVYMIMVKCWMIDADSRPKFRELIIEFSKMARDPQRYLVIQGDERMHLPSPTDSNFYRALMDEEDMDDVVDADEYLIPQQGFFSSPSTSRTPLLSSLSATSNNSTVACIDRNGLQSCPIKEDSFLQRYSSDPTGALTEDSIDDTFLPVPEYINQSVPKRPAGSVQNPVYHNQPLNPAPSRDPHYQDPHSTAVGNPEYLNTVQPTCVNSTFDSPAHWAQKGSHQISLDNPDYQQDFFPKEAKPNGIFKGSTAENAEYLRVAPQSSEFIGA
T4 sequence (P00533 25-1210 L858R): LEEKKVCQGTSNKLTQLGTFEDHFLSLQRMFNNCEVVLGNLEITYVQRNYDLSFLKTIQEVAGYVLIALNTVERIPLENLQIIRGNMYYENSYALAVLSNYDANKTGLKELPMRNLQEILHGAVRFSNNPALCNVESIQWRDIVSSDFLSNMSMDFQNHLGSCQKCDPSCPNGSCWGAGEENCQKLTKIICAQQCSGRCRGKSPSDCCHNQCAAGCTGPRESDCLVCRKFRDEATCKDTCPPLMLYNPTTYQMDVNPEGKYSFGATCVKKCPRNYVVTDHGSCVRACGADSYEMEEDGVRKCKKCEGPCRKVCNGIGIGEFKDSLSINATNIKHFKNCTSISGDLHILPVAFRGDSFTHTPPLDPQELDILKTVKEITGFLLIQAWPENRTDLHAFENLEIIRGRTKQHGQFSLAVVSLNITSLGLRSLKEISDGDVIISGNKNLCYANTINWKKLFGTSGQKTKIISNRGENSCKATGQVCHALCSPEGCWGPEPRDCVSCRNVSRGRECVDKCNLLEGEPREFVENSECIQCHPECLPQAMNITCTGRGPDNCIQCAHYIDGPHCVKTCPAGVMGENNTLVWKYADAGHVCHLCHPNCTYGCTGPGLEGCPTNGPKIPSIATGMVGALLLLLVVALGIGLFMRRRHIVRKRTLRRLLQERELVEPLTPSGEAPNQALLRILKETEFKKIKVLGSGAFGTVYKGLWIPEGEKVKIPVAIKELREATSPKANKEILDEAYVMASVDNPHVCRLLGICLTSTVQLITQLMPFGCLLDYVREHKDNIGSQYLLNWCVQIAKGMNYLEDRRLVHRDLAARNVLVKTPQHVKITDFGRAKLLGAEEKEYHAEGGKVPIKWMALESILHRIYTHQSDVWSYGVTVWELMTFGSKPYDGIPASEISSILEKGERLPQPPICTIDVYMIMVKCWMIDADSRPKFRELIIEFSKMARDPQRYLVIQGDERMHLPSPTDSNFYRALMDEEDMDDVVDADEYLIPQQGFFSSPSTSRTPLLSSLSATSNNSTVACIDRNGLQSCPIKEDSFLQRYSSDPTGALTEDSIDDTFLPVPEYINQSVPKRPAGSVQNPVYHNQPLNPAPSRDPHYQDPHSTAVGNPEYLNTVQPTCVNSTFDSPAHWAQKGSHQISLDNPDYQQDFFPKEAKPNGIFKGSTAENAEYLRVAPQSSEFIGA
T5 sequence (P00533 with tags, fused parts or gaps DEL746-750/C797S limits assumed): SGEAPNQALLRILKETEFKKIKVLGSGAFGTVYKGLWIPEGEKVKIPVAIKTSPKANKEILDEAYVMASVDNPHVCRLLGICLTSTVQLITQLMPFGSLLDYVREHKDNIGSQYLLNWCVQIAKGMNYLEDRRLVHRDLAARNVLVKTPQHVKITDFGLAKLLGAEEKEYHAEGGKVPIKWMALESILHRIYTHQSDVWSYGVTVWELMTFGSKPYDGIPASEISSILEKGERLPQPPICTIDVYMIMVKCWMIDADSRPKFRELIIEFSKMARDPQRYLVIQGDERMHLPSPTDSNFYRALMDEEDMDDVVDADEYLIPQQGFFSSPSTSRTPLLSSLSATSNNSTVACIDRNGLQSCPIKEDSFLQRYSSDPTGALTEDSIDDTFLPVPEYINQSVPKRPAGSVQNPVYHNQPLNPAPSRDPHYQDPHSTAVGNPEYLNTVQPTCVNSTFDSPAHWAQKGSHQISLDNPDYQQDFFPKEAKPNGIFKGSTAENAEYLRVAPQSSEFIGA
T7 sequence (P00533 with tags, fused parts or gaps DEL746-750/T790M/C797S limits assumed): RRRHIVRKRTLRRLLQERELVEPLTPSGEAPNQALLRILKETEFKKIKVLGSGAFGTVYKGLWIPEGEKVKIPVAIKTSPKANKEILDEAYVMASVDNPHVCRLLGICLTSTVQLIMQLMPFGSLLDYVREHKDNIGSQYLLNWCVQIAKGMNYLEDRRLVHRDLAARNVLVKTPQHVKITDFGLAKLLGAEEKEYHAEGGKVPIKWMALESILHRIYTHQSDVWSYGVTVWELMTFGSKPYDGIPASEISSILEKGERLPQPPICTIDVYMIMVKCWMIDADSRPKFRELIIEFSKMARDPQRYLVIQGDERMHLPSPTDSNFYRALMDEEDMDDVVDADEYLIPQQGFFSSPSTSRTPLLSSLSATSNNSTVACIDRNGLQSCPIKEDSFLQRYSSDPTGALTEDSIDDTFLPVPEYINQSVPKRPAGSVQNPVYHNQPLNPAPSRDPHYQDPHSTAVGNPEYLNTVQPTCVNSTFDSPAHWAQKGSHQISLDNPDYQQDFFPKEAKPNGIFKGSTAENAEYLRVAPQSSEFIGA
T2 sequence (P00533 with tags, fused parts or gaps DEL746-750 limits assumed): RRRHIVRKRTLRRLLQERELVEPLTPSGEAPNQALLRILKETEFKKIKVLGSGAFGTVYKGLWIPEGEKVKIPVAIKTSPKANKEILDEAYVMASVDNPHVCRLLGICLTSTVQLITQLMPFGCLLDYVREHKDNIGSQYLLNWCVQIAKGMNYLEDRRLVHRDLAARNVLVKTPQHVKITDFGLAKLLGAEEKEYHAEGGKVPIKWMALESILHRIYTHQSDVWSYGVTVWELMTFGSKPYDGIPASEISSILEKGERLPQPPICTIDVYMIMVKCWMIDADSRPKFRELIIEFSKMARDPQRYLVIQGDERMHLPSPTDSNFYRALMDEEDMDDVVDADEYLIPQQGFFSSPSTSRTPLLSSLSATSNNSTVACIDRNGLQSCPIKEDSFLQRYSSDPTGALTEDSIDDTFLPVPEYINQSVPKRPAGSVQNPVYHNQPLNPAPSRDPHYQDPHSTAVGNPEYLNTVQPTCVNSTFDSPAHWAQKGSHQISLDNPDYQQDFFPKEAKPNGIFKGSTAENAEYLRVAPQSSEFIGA

Compound | GI50 [1] | IC50 [2] | IC50 [3] | GI50 ([4]; A-431 cells) | IC50 [5] | IC50 [6] | IC50 [7] | IC50 [8] | IC50 [9] | IC50 [10] | GI50 [11, 13] | GI50 [11, 14] | GI50 [11, 15] | GI50 [11, 16] | GI50 [11, 17] | GI50 [11, 18] | GI50 [11, 19] | IC50 [12] | GI50 ([1]; Homo sapiens, PC-9, 72 h) | GI50 [4, 20] | also measured
CN1CCCC12CN(c1ccc3nc4n(c3c1)C13CCC(CN(CCOc5c(cnn5C)-c5cc(cn(C)c5=O)C(=O)N4)C1)C3)C2 (single isomer, unassigned) [Example A76A] | 810 nM | > 5000 nM | 450 nM | 7930 nM | > 5000 nM | 2860 nM | 503 nM | > 5000 nM | 4860 nM | 4300 nM | 272 nM | 564 nM | 536 nM | 304 nM | 980 nM | 942 nM | 584 nM | > 5000 nM | – | – | –
C[C@@H]1CCCOc2c(cnn2C)-c2cc(cn(C)c2=O)C(=O)Nc2nc3ccc(N4CCNCC4)c(Cl)c3n2C1 [Example A23, (11R)-15-chloro-5,11,26-trimethyl-16-(piperazin-1-yl)-7-oxa-4,5,13,20,22,26-hexaazapentacyclo[22.3.1.0^{2,6}.0^{13,21}.0^{14,19}]octacosa-1(28),2(6),3,14,16,18,20,24-octaene-23,27-dione] | – | 3 nM | 4.7 nM | – | 12 nM | 207 nM | 3 nM | > 5000 nM | 2.7 nM | 61 nM | – | – | – | – | – | – | – | 2.7 nM | 208 nM | 2820 nM | GI50 [11, 21]: 4 nM; GI50 [11, 22]: 11 nM; GI50 [11, 23]: 104 nM; GI50 [11, 24]: 32 nM; GI50 [11, 25]: 12 nM; GI50 [11, 26]: 151 nM; GI50 [11, 27]: 10 nM
CN1CC2CN(c3ccc4nc5n(c4c3)C34CCC(CN(CCOc6c(cnn6C)-c6cc(cn(C)c6=O)C(=O)N5)C3)C4)CC2C1 (single isomer, unassigned) [Example A68B] | 3.5 nM | 1.8 nM | 1.2 nM | 284 nM | 1.8 nM | 2.9 nM | 0.95 nM | 8.9 nM | 1.8 nM | 3.1 nM | 0.66 nM | 1.3 nM | 2.1 nM | 2.8 nM | 1.3 nM | 9.6 nM | 1.8 nM | 1.8 nM | – | – | –
CN(C)C1CN(c2ccc3nc4n(c3c2)C23CCC(CN(CCOc5c(cnn5C)-c5cc(cn(C)c5=O)C(=O)N4)C2)C3)CC1F (single isomer, unassigned) [Example A84D, 15,21-Dimethyl-5-[4-fluoro-3-(N,N-dimethylamino)pyrrolidinyl]-23-oxa-2,9,11,15,20,21,26-heptaazaheptacyclo[24.4.1.1^{1,28}.1^{13,17}.0^{2,10}.0^{3,8}.0^{18,22}]tritriaconta-3,5,7,9,13,17(33),18(22),19-octaene-12,16-dione] | 29 nM | 3.9 nM | 3.1 nM | 1770 nM | 4.6 nM | 21 nM | 2.4 nM | 196 nM | 3.3 nM | 9.8 nM | 0.77 nM | 13 nM | 14 nM | 16 nM | 31 nM | 40 nM | 14 nM | 4.4 nM | – | – | –
CN1CCN(c2ccc3nc4n(c3c2)C23CCC(CC2)CN(CCOc2c(cnn2C)-c2cc(cn(C)c2=O)C(=O)N4)C3)CC1 [Example A75, 15,21-Dimethyl-5-(4-methylpiperazin-1-yl)-23-oxa-2,9,11,15,20,21,26-heptaazaheptacyclo[26.2.2.1^{1,26}.1^{13,17}.0^{2,10}.0^{3,8}.0^{18,22}]tetratriaconta-3,5,7,9,13,17(34),18(22),19-octaene-12,16-dione] | – | 3.8 nM | 3.3 nM | – | 6 nM | 44 nM | 2.8 nM | 672 nM | 3.4 nM | 35 nM | – | – | – | – | – | – | – | 8 nM | 44 nM | 5420 nM | GI50 [11, 21]: 2.5 nM; GI50 [11, 22]: 27 nM; GI50 [11, 23]: 21 nM; GI50 [11, 24]: 21 nM; GI50 [11, 25]: 35 nM; GI50 [11, 26]: 69 nM; GI50 [11, 27]: 20 nM
